Earlier results, collected in paper PMC6207715, “Determination of extended substrate specificity of the MALT1 as a strategy for the design of potent substrates and activity-based probes” (Scientific Reports, 2018).

Key:
Settings in all cases: cited from earlier work
[1] = test system: caspase -3
Source text: (§1) Z-VRPR-FMK, which was originally designed as a plant metacaspase inhibitor[3], is the most frequently used MALT1 inhibitor and binds covalently to the MALT1 active site. Mepazine is another inhibitor of MALT1, but functions in a noncovalent and reversible manner, limiting its usefulness in studying the enzyme. […] Hachmann et al. described the first tetrapeptidic MALT1-activity-based probe, which was characterized by medium potency (kobs/I = 9, 300 M^−1s^−1)[2 ...

[2] = test system: caspase -8
Source text: as §1

[3] = target: T1, MALT1 (Homo sapiens, UniProt Q9UDY8)
T1 sequence (Q9UDY8 1-824): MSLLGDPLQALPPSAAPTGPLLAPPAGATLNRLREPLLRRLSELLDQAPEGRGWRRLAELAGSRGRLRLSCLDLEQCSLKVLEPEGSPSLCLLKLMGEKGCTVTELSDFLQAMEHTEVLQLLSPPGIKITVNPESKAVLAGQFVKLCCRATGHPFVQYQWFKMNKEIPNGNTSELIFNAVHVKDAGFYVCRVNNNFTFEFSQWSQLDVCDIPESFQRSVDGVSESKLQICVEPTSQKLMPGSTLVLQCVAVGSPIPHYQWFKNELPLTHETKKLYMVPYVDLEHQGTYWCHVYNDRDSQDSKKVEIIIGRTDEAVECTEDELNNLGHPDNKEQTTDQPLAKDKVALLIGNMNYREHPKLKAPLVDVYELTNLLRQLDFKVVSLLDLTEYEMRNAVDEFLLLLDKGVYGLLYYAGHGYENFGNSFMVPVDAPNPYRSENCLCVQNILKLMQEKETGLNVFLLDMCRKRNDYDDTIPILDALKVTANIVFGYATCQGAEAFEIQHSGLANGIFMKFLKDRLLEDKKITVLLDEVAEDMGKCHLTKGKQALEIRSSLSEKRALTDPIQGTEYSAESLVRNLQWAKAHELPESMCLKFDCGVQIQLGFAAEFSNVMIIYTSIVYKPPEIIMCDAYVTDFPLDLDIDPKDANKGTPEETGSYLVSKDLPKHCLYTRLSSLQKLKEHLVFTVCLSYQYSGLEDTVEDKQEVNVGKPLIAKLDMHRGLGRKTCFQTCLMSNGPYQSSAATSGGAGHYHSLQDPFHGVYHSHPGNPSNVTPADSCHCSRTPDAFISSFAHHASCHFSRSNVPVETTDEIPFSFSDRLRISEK
Source text: as §1

[4] = test system: caspase -9
Source text: as §1

COCCOc1nc(-c2ccc(Cl)c(Cl)c2)n(-c2ccc(NC(=O)CCl)cc2)n1 [MI-2]
activity toward caspase -3 [1]: exhibits activity
activity toward caspase -8 [2]: exhibits activity
IC50 [3]: 5.84 µM
activity toward caspase -9 [4]: exhibits activity
